We go through 16 compounds from ChEMBL document CHEMBL1127476, “3-substituted thieno[2,3-b][1,4]thiazine-6-sulfonamides. A novel class of topically active carbonic anhydrase inhibitors” (J Med Chem, 1994).

Each structure is given as a SMILES string. ≈ marks a conversion by molar mass, not a printed value.

Series [1] is filed under the species Oryctolagus cuniculus.
Description: Change in intraocular pressure (IOP) was measured in the normotensive pigmented rabbit
Series [2] is filed under the species Oryctolagus cuniculus. This is another data set of the same source.
Description: Change in intraocular pressure (IOP) was measured in the normotensive pigmented rabbit in presence of MK-927
A short description of series [3]: The pKa value in 30% EtOH/H2O. The class given is physicochemical.
The species named for series [4] is Oryctolagus cuniculus. The source holds these as a separate data set.
Description: Reduction of the elevated intraocular pressure (IOP) in alpha-chymotrypsin treated albino rabbit
A short description of another series: physchem. Particulars: pH 5.2 buffer, pH 5.2, Solubility.
In series [5] the target is T1, Carbonic anhydrase 2 (Homo sapiens, UniProt P00918).
Description: Tested for ability to compete with dansylamide for binding to human erythrocyte carbonic-anhydrase-II (HCA-II)
The target of series [6] is T1, Carbonic anhydrase 2. The source holds these as a separate data set.
Description: Tested for ability to inhibit human erythrocyte carbonic-anhydrase-II- (HCA II) catalyzed carbon dioxide hydration
The conditions of series [7]: buffer, pH 5.2.
Description: Solubility in pH 5.2 buffer

Description for physchem: Solubility in pH 5.2 buffer

On to `COCCN(CCOC)CCC1CNc2cc(S(N)(=O)=O)sc2S1(=O)=O` (configuration not stated), for which the “Delta IOP” value in the series filed under Oryctolagus cuniculus [1] is recorded as -4.1 mmHg; in the series listed under Oryctolagus cuniculus [2], -5.1 mmHg; in the series listed under Oryctolagus cuniculus [4], 4 mmHg. For the same compound, in series [3], the pKa was found to be 6.4. The compound also showed a solubility in the series “physchem” greater than 6700 µg/mL. In addition, the inhibition constant (Ki) at Carbonic anhydrase 2 [5] is 0.97 nM. The IC50 at Carbonic anhydrase 2 [6] is 2.14 nM.
Take `COCCOCCN(CCOC)C(=O)CC1C(=O)Nc2cc(S(N)(=O)=O)sc2S1(=O)=O` (configuration not stated): the Ki at Carbonic anhydrase 2 [5] was found to be 3.6 nM. Moreover, the IC50 on Carbonic anhydrase 2 [6] was 2.18 nM.
As to `NS(=O)(=O)c1cc2c(s1)SCC(=O)N2`, the affinity on Carbonic anhydrase 2 [5], expressed as Ki, was 24 nM. At Carbonic anhydrase 2 [6], the IC50 stood at 12.8 nM.
For `NS(=O)(=O)c1cc2c(s1)S(=O)(=O)C(CCO)CN2` (configuration not stated), the pKa in series [3] was determined as 8.45. In “physchem”, the concentration in solution (solubility) came to 4500 µg/mL (≈ 14.4 mM). Moreover, the affinity at Carbonic anhydrase 2 [5] corresponds to a Ki of 1.19 nM. The same compound returned a half-maximal inhibitory concentration (IC50) against Carbonic anhydrase 2 [6] of 1.9 nM.
In turn, `NS(=O)(=O)c1cc2c(s1)S(=O)(=O)CCN2` came in with a pKa in series [3] of 8.8. For the same compound, the solubility in “physchem” was found to be 190 µg/mL (≈ 0.708 mM). Also, on Carbonic anhydrase 2 [5], the Ki turned out to be 3.36 nM. This compound showed an IC50 on Carbonic anhydrase 2 [6] of 2.46 nM.
As to `COCCOCCN(CCOC)CCC1CNc2cc(S(N)(=O)=O)sc2S1(=O)=O` (configuration not stated), the “Delta IOP” value in the series listed under Oryctolagus cuniculus [1] is listed as -1.6 mmHg; in the series filed under Oryctolagus cuniculus [2] it was -5.3 mmHg; in the series filed under Oryctolagus cuniculus [4] it was 6 mmHg. Moreover, the pKa in series [3] came out at 6.55. Also, the solubility in “physchem” was 11800 µg/mL (≈ 25 mM). The inhibition constant Ki at Carbonic anhydrase 2 [5] was 4.14 nM. For the same compound, the midpoint of inhibition on Carbonic anhydrase 2 [6], the IC50, lay at 1.45 nM.
`NS(=O)(=O)c1cc2c(s1)SC(CC(=O)O)C(=O)N2` (configuration not stated) showed a pKa in series [3] of 4.3. Also, in “physchem”, the concentration in solution (solubility) was 2400 µg/mL (≈ 7.78 mM). Also, the Ki on Carbonic anhydrase 2 [5] turned out to be 47.5 nM.
For the compound `CC(C)CNC(=O)CC1Sc2sc(S(N)(=O)=O)cc2NC1=O` (configuration not stated), in series [3], the pKa stood at 3.65. Also, the solubility in the series “physchem” stood at 30 µg/mL (≈ 0.0825 mM).
`NS(=O)(=O)c1cc2c(s1)S(=O)(=O)C1(CC1)CN2` had a pKa in series [3] of 8.29. In addition, in the series “physchem”, the concentration in solution (solubility) was 520 µg/mL (≈ 1.77 mM). In addition, the affinity on Carbonic anhydrase 2 [5], expressed as Ki, was 10.9 nM. The compound also registered an IC50 against Carbonic anhydrase 2 [6] of 2 nM.
As for `NS(=O)(=O)c1cc2c(s1)SC(CCO)CN2` (configuration not stated), the pKa in series [3] came to 9.62. This compound also registered a solubility in “physchem” of 640 µg/mL (≈ 2.28 mM).
As for `NS(=O)(=O)c1cc2c(s1)S(=O)(=O)C(CCN1CCOCC1)CN2` (configuration not stated), the entries for the “Delta IOP” value in the series listed under Oryctolagus cuniculus [1], in the series listed under Oryctolagus cuniculus [2] and in the series listed under Oryctolagus cuniculus [4] were -2.8 mmHg, -4.4 mmHg and 5 mmHg, respectively. The same compound showed a pKa in series [3] of 3.23. Further, the concentration in solution in the series “physchem” (solubility) was 2100 µg/mL (≈ 5.5 mM).
At Carbonic anhydrase 2 [5], `COCCOCCN(CCOC)CCC1C(=O)Nc2cc(S(N)(=O)=O)sc2S1(=O)=O` (configuration not stated) showed a Ki of 4.14 nM. On Carbonic anhydrase 2 [6], this compound came in with an IC50 of 5.15 nM.
Consider `NS(=O)(=O)c1cc2c(s1)S(=O)(=O)CC(=O)N2`, for which the pKa in series [3] came out at 7.43. Besides, the solubility in “physchem” turned out to be 600 µg/mL (≈ 2.13 mM). The compound also registered a Ki on Carbonic anhydrase 2 [5] of 2.9 nM. Besides, the IC50 on Carbonic anhydrase 2 [6] was 3.7 nM.
Take `CC(C)CNCCC1CNc2cc(S(N)(=O)=O)sc2S1(=O)=O` (configuration not stated): the “Delta IOP” value in the series filed under Oryctolagus cuniculus [1] is listed as -2.1 mmHg; in the series filed under Oryctolagus cuniculus [2], -6.2 mmHg; in the series listed under Oryctolagus cuniculus [4], -4.5 mmHg. Besides, the pKa in series [3] was 8.18. The amount in solution in the series “physchem” (solubility) came to 24000 µg/mL (≈ 65.3 mM). Affinity on Carbonic anhydrase 2 [5] was put at a Ki of 4.05 nM. This compound also showed a 50% inhibitory concentration (IC50) on Carbonic anhydrase 2 [6] of 2.9 nM.
`CC(C)CN[C@H]1CCS(=O)(=O)c2sc(S(N)(=O)=O)cc21` (stereo in doubt; form 1) [SEZOLAMIDE] yielded a solubility in series [7] greater than 16000 µg/mL.
Consider `CC(C)CN[C@H]1CCS(=O)(=O)c2sc(S(N)(=O)=O)cc21` (stereo in doubt; form 2) [SEZOLAMIDE], for which the solubility in series [7] worked out at 33000 µg/mL (≈ 97.5 mM).

A word on the pKa: it is the negative logarithm of the acid dissociation constant. The low end stands for a group that gives up its proton readily, the high end for a group that holds its proton tightly. By solubility is commonly meant how much of the substance goes into solution per volume. Higher therefore signals a readily soluble substance. Usually Ki stands for a measure of affinity in units of concentration, obtained from inhibition or displacement. Low values mean higher affinity, high ones lower affinity. As usually defined, the IC50 is the point on the concentration scale where inhibition reaches its midpoint. A lower IC50 goes with inhibition by little substance.
